Assay [1] deals with human plasma. As to the kind of experiment: Anticoagulant effect in human plasma, activated partial thromboplastin time (aPTT). It is filed as biochemical. The source says: (§1) Anticoagulant data may be represented as follows:
For assay [2], the system named is human plasma. As to the kind of experiment: Anticoagulant effect in human plasma, thrombin time (TT). The class given is biochemical.
From the text: as §1

In a further assay the test system is HUMAN LUNG TRYPTASE
The assay can be described thus: Inhibition of tryptase, progress curve analysis. The conditions noted are these: non-linear regression (ENZFITTER). It is filed as biochemical. The text has this: Using standard in vitro methodology for determining inhibitory activity of tryptase (Journal of Biological Chemistry, Vol. 261, June 5, pp. 7372-7379, 1986), the following results have been obtained.

Another assay deals with rats. The assay can be described thus: FeCl₃-induced thrombosis model in rats. It is filed as in vivo. Conditions: intravenously 10 mg/kg of body weight injection, followed by continuous 1 mg/kg/minute infusion, 4 rats. The source says: In vivo anti-thrombotic effects in rats may also be utilized for evaluation. […] Of course, actual dosage and frequency will vary dependent upon the nature and severity of the condition, age, general health conditions and such other factors well known and appreciated by the skilled attending diagnostician.

By kon is commonly meant a measure of how fast the partners come together. The low end stands for slower complex formation, the high end for faster complex formation. Regarding `CN[C@H](Cc1ccccc1)C(=O)N1CCC[C@H]1C(=O)NC(CCCNC(=N)N)C(=O)C(F)(F)F` (stereo partly drawn) [D-CH₃Phe-Pro-Arg-CF₃, N-Methyl-D-phenylalanyl-N[4-(aminoiminomethyl)amino-1-(trifluoroacetyl)butyl]-L-proline amide], the “ID₂ aPTT (amount required for doubling the clotting time)” value (shortened to “ID₂ aPTT”) with human plasma [1] amounted to 218 µM. For the same compound, the “ID₂ TT (amount required for doubling the clotting time)” value (“ID₂ TT” below) in the assay with human plasma [2] is 108 µM. Besides, the kon with HUMAN LUNG TRYPTASE stood at 200 ± 10 M⁻¹ s⁻¹.

In the case of `N=C(N)NCCCC(NC(=O)[C@@H]1CCCN1C(=O)[C@H](N)Cc1ccccc1)C(=O)C(F)(F)C(F)(F)F` (stereo partly drawn) [D-Phe-Pro-Arg-CF₂CF₃, D-phenylalanyl-N-[4-(aminoiminomethyl)amino]-1-(pentafluoropropionylbutyl]-L-prolineamide, 1.5 HF, O.5 CH₃CO₂H, 3H₂O], the “ID₂ aPTT” value with human plasma [1] amounted to 2 µM. In the assay with human plasma [2], the “ID₂ TT” value is recorded as 1 µM. For the same compound, the occlusion result in the assay on rats was “preventing occlusion in two rats and prolonging occlusion in the other 2 of the 4 rats”. Moreover, in the assay on HUMAN LUNG TRYPTASE, the kon was 1200 ± 40 M⁻¹ s⁻¹.

With `N=C(N)NCCCC(NC(=O)[C@@H]1CCCN1C(=O)[C@H](N)Cc1ccccc1)C(=O)C(F)(F)F` (stereo partly drawn) [D-Phe-Pro-Arg-CF₃], the “ID₂ aPTT” value in the assay with human plasma [1] amounted to 148 µM. In addition, in the assay with human plasma [2], the “ID₂ TT” value is on record as 43 µM. Besides, the kon in the assay with HUMAN LUNG TRYPTASE was found to be 370 ± 40 M⁻¹ s⁻¹.

(Values after patent publication EP0503203A1, “Novel thrombin inhibitors” (MERRELL DOW PHARMACEUTICALS INC., priority 1991, dated 1992).)
